Measurements from ChEMBL document CHEMBL1201862, “PubChem BioAssay data set” (2004).
Calls of active or inactive are those of the source.

Experiments:
[1] = Vero E6 cell cytotoxicity, dose response, cytotoxicity control for non-replicating M. tuberculosis project, secondary assay (AID 492998); type: functional, VeroE6; conditions: Vero C1008
[2] = molecular target: T1, Protein RecA (Mycobacterium tuberculosis, UniProt P9WHJ3); assay: Fluorescence Cell-Free Homogeneous Dose Retest to Identify Inhibitors of RecA-Intein Splicing Activity. [Related pubchem assays (depositor defined):AID2097, AID2223, AID489010, AID492950]; type: functional
T1 sequence (P9WHJ3 whole entry): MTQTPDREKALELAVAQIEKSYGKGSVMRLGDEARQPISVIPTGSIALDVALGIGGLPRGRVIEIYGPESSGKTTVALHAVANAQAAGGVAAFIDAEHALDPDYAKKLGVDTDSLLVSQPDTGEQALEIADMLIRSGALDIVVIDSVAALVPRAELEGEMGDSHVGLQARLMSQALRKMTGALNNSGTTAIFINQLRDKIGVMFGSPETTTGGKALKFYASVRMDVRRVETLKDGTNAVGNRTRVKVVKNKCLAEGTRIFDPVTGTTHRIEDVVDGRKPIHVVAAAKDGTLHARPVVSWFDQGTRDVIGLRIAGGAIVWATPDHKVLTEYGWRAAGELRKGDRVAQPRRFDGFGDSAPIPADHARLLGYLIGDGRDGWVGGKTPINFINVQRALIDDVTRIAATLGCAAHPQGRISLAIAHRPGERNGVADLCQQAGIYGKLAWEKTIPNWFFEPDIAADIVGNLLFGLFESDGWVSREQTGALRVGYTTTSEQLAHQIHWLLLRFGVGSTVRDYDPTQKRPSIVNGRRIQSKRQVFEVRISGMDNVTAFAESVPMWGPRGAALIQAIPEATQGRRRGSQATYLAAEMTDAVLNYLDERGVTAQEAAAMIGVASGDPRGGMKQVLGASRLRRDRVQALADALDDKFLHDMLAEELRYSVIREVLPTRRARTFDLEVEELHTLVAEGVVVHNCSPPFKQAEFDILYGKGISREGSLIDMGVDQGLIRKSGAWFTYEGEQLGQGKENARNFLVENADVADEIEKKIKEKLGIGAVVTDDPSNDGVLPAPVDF

[3] = Intein inhibitors as potential Tuberculosis drugs, a cytotoxicity screen. [Related pubchem assays (depositor defined):AID2221, AID2223, AID434968, AID435010, AID449749, AID449750, AID489010]; type: functional
[4] = THP-1 cell cytotoxicity, dose response, cytotoxicity control for non-replicating M. tuberculosis project (AID 489025); type: functional
[5] = molecular target: Nonstructural protein 1 (Influenza A virus, UniProt Q194T2); type: functional, Influenza A virus (A/California/07/2009(H1N1))
Sequence of Nonstructural protein 1 (Q194T2 whole entry): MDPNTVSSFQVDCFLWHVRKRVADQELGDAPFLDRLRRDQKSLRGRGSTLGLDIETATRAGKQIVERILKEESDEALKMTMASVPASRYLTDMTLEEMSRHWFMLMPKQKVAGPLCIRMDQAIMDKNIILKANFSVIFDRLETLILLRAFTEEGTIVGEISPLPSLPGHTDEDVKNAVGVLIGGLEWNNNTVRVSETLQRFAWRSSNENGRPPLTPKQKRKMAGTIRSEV

[6] = molecular target: T2, Replicative DNA helicase DnaB (Mycobacterium tuberculosis, UniProt P9WMR3); assay: DnaB intein splicing inhibitors, dose response, biochemical, cell-free fluorescence (AID 449749); type: functional
T2 sequence (P9WMR3 whole entry): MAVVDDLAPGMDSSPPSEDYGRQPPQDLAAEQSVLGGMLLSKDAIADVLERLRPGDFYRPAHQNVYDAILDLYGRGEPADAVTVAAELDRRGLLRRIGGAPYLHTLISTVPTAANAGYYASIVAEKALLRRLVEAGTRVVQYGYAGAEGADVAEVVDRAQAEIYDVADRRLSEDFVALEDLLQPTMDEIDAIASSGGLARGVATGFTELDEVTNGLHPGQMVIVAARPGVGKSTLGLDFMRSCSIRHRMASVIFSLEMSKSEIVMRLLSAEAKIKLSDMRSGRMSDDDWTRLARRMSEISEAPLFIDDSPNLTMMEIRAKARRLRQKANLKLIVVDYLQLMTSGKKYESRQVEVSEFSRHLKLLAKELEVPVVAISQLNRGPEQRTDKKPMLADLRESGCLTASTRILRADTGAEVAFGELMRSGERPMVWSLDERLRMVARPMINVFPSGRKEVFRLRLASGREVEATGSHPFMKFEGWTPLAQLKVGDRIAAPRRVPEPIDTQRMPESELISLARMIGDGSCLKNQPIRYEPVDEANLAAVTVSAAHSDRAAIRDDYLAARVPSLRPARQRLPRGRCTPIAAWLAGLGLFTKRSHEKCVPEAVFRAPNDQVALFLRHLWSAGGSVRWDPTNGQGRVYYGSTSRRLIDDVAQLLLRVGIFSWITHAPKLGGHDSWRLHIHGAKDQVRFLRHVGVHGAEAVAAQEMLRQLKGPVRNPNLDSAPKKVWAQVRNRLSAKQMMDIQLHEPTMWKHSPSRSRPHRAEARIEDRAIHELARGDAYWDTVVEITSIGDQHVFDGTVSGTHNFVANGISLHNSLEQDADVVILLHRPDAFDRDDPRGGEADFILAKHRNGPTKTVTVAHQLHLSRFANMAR

[7] = molecular target: T2, Replicative DNA helicase DnaB; assay: DnaB Intein secondary assay Measured in Biochemical System Using Plate Reader - 2047-04_Inhibitor_Dose_DryPowder_Activity. [Related pubchem assays (depositor defined):AID2223]
[8] = molecular target: T1, Protein RecA; assay: GFP-RecA MOA-DTT Measured in Biochemical System Using Plate Reader - 2047-05_Inhibitor_Dose_DryPowder_Activity. [Related pubchem assays (depositor defined):AID2223]; parameters: species or system Mycobacterium tuberculosis H37Rv
[9] = cells; type: functional
[10] = molecular target: T3, Microphthalmia-associated transcription factor (Homo sapiens, UniProt O75030); assay: reducers of TRPM1 reporter luminescence, concentration series – cell-based, SK-MEL-5, cherry-picked, set 3, MITF inhibitor project, dose response (AID 493073); type: functional;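 further: SK-MEL-5 melanoma cells with luciferase driven by the MITF target TRPM1 promoter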
T3 sequence (O75030 whole entry): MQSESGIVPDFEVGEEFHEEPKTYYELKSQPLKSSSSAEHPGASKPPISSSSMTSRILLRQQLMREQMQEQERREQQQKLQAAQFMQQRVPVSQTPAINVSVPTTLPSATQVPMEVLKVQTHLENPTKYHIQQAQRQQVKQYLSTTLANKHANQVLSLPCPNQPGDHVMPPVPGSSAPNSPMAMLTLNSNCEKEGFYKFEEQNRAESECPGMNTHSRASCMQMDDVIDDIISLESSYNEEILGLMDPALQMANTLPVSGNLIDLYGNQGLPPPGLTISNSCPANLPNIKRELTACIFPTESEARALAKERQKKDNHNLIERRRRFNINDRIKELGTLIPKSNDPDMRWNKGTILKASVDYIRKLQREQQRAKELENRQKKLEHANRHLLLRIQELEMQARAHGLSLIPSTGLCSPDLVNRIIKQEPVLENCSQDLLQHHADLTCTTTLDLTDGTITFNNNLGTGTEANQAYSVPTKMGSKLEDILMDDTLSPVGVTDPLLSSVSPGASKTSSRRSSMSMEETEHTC

[11] = molecular target: T1, Protein RecA; assay: RecA Intein Measured in Biochemical System Using Plate Reader - 2047-02_Inhibitor_Dose_DryPowder_Activity. [Related pubchem assays (depositor defined):AID2223]; parameters: species or system Mycobacterium tuberculosis H37Rv

Cc1ccccc1-n1ncc2c([N+](=O)[O-])cc([N+](=O)[O-])cc21
active: CC50 [1] > 20 µM | EC50 [2] 0.911 µM | CC50 [3] 30.8 µM | CC50 [4] > 40 µM | IC50 [5] 31.1 µM | AC50 [6] 3.15 µM | AC50 [7] 5.7 µM | AC50 [8] 232 µM | IC50 [9] 0.95 µM | AC50 [10] 8.7 µM | AC50 [11] 2.19 µM
